Test results as given in paper PMC8998355, “Diversity-Oriented Synthesis Catalyzed by Diethylaminosulfur-Trifluoride—Preparation of New Antitumor Ecdysteroid Derivatives” (International Journal of Molecular Sciences, 2022).

Tests used:
[1] = tested on: L5178Y mouse T-cell lymphoma cells; test: MTT cytotoxicity assay (24 h, 1 × 10^4 cells); format: cell-based; settings: 24 h MTT, n = 3, read-out: Cytotoxicity (IC50 ± SD)
Description: (§1) To assess the compounds’ effect on cell growth and viability, we used two different experimental setups of MTT assay. This allowed a comparative evaluation of results obtained from a short-term (24 h) treatment of a relatively higher number (10,000) of cells and those from a long-term (72 h) treatment of a lower cell number (6000), which makes it possible to gain some insight into the cytotoxic vs. cytostatic properties of the compounds. Even though MTT assay is an endpoint detection method, i.e., it provides a single readout of viable cells at the end of the experiment, such a comparison offers a reliable tool to identify antiproliferative activity of compounds that are not cytotoxic.
(§2) L5178Y mouse T-cell lymphoma cells (ECACC Cat. No. 87111908) were obtained from FDA, Silver Spring, MD, USA. These were transfected with pHa MDR1/A retrovirus as described previously. ABCB1-expressing L5178YMDR cells were selected by culturing the infected cells with colchicine. The cell lines were cultured in McCoy’s 5A medium supplemented with 10% heat inactivated horse serum, 2 mM L-glutamine, and penicillin–streptomycin mixture.
(§3) MTT assay was performed in 96-well flat-bottomed microtiter plates as described before. Briefly, a 10 mM concentration stock solution in DMSO was prepared for each compound. These were diluted in 100 μL of McCoy’s 5A medium. Subsequently, 1 × 10^4 (cytotoxicity assay) or 6 × 10^3 (antiproliferative assay) T-cell mouse lymphoma cells in 100 μL of medium were added to each well, except for the medium control wells.
(§4) The culture plates were further incubated at 37 °C for 24 h (cytotoxicity assay) or 72 h (antiproliferative assay); at the end of the incubation period, 20 μL of MTT solution (from a 5 mg/mL stock) was added to each well. After incubation at 37 °C for 4 h, 100 μL of SDS solution (10% in 0.01 M HCI) was added to each well and the plates were further incubated at 37 °C overnight. The cell growth was determined by measuring the optical density at 540 nm (ref. 630 nm) with a Multiscan EX ELISA reader (Thermo Labsystems, Cheshire, WA, USA). IC50 values were calculated by variable slope nonlinear regression using the log(inhibitor) vs. normalized response of GraphPad Prism 5.01 (GraphPad Software Inc., San Diego, CA, USA).

[2] = tested on: L5178YMDR cells (ABCB1-expressing); test: MTT cytotoxicity assay (24 h, 1 × 10^4 cells); format: cell-based; settings: Mus musculus, 24 h MTT, n = 3, read-out: Cytotoxicity (IC50 ± SD)
Description: as §1, §2, §3, §4

[3] = MTT cytotoxicity assay (24 h); format: cell-based; settings: human, MRC-5 human embryonal lung fibroblasts; MRC-5, 24 h MTT, n = 3; read-out: Cytotoxicity (IC50 ± SD)
Description: as §1
(§5) MRC-5 human embryonal lung fibroblasts (CCL-171, ATCC) were acquired from Sigma-Aldrich (Merck, KGaA, Darmstadt, Germany), and were cultured in EMEM medium containing 4.5 g/L glucose and supplemented with a non-essential amino acid mixture, a selection of vitamins, and 10% of FBS.
(§6) The adherent human fibroblast cells were seeded in 100 μL of EMEM medium overnight before each assay. Two-fold serial dilutions of the compounds (0.19–100 µM) were prepared in separate plates, then transferred to the plates containing the adherent cell lines.
as §4

[4] = tested on: L5178Y mouse T-cell lymphoma cells; test: MTT antiproliferative assay (72 h, 6 × 10^3 cells); format: cell-based; settings: Mus musculus; L5178Y, 72 h MTT, n = 3; read-out: Antiproliferative Effect (IC50 ± SD)
Description: as §1, §2, §3, §4

[5] = tested on: L5178YMDR cells (ABCB1-expressing); test: MTT antiproliferative assay (72 h, 6 × 10^3 cells); format: cell-based; settings: Mus musculus, 72 h MTT, n = 3, read-out: Antiproliferative Effect (IC50 ± SD)
Description: as §1, §2, §3, §4

[6] = tested on: MRC-5 human embryonal lung fibroblasts; test: MTT antiproliferative assay (72 h); format: cell-based; settings: Homo sapiens, MRC5; MRC-5, 72 h MTT, n = 3; read-out: Antiproliferative Effect (IC50 ± SD)
Description: as §1, §5, §6, §4

ABCB1 = target: T1, ABCB1 (Homo sapiens, UniProt P08183); test: ABCB1 inhibition assay (rhodamine 123 accumulation, flow cytometry); format: cell-based; settings: human, probe rhodamine 123 (5.2 µM); for inhibition at 20 min, 2 µM / inhibition at 20 min, 20 µM: n = 1
T1 construct: expressed in transfected cells; host or cells: L5178Y mouse T-cell lymphoma cells transfected with pHa MDR1/A retrovirus, selected with colchicine (L5178YMDR)
Description: ABCB1 inhibition was determined by the intracellular accumulation of rhodamin 123 as reported before. Briefly, 2 × 10^6 cells/mL of L5178Y and L5178YMDR cell lines were re-suspended in serum-free McCoy’s 5A medium and distributed in 0.5 mL aliquots into Eppendorf centrifuge tubes. The compounds were added at a final concentration of 2 or 20 μM and the samples were incubated for 10 min at room temperature. Tariquidar was used as positive control and DMSO as negative control; for the latter, no activity was observed. Subsequently, 10 μL (5.2 μM final concentration) of the ABCB1 substrate fluorescent dye rhodamine 123 was added and the cells were incubated further for 20 min at 37 °C, washed twice and re-suspended in 1 mL PBS for analysis. Fluorescence of the cell population was measured with a PartecCyFlow® flow cytometer (Partec, Münster, Germany). Mean fluorescence intensity percentage was calculated for the treated vs. untreated L5178YMDR cells. Inhibition percentage for the treated cells was calculated from the corresponding values of the untreated L5178Y and L5178YMDR cells, representing 100% and 0% inhibition, respectively.

L5178YMDR cells = test: Combination assay with doxorubicin (checkerboard microplate method, MTT); format: cell-based, mouse; parameters: Dm (antilog of the x-intercept of the median-effect plot): unit not given here; settings: for CIavg (weighted average CI): (CI50 + 2CI75 + 3CI90)/6
Description: Compounds 7, 10, 11, 13, and 14 had sufficient individual antiproliferative properties for their assessment of chemo-sensitizing activity. This was carried out as an antiproliferative assay on L5178YMDR cells in combination with doxorubicin, arranged according to the checkerboard microplate method.
The checkerboard microplate method was used to evaluate the compounds’ interaction with doxorubicin, as described before. Briefly, doxorubicin (2 mg/mL, Teva Pharmaceuticals, Budapest, Hungary) was serially diluted in the horizontal direction (100 µL per well), and the ecdysteroid was subsequently diluted in the vertical direction (50 µL per well). L5178YMDR cells were re-suspended in culture medium and added to each test well in 50 µL to contain 1 × 10^4 cells per well, and 50 µL of medium was added to the medium control wells. The plates were incubated for 72 h at 37 °C in a CO2 incubator and, at the end of the incubation period, the cell growth was determined by MTT assay as described above. Cell viability data were analyzed by the Calcusyn software using the Chou method, and drug interactions were expressed as combination index (CI) values, in which 0 < CI < 1, CI = 1, and CI > 1 refer to synergism, additivity, and antagonism, respectively.

[7] = L5178YMDR, rhodamine 123 accumulation
[8] = drug ratio 23.2:1, with doxorubicin
[9] = drug ratio 46.4:1, with doxorubicin
[10] = drug ratio 92.8:1, with doxorubicin
[11] = drug ratio 185.6:1, with doxorubicin
[12] = drug ratio 371.2:1, with doxorubicin

Compound	IC50 [1] [µM]	IC50 [2] [µM]	IC50 at 24 h [3] [µM]	IC50 [4] [µM]	IC50 [5] [µM]	IC50 [6] [µM]	inhibition at 20 min, 2 µM (ABCB1; [7]) [%]	inhibition at 20 min, 20 µM (ABCB1; [7]) [%]	also measured
CC(=O)[C@H]1CC=C2C3=CC(=O)[C@@H]4C[C@H]5OC(C)(C)O[C@H]5C[C@]4(C)C3=CC[C@@]21C [Compound 6]	91.1 ± 6.8	> 100	> 100	31.2 ± 3.9	54.1 ± 2.3	> 100	-0.38	0.13	–
CC(=O)O[C@H]1C[C@@]2(C)C(=C(O)C(=O)C3=C2CC[C@@]2(C)C3=CC[C@@H]2[C@@]2(C)OC(C)(C)O[C@@H]2CCC(C)(C)O)C[C@H]1O [Compound 16, calonysterone 2-acetate 20,22-acetonide]	63 ± 4.4	78.7 ± 6.7	> 100	50.3 ± 0.2	40 ± 3.4	67.2 ± 14.6	0.71	15.7	–
CC(=O)N[C@H]1CC[C@@]2(F)C3=CC(=O)[C@@H]4C[C@H]5OC(C)(C)O[C@H]5C[C@]4(C)[C@H]3CC[C@]12C [Compound 14]	> 100	> 100	> 100	71.6 ± 1.5	65.9 ± 2.1	> 100	0.2	-0.12	CI at ED75 (L5178YMDR cells; [8]): 0.73; CI at ED90 (L5178YMDR cells; [8]): 0.63; Dm (antilog of the x-intercept of the median-effect plot) (L5178YMDR cells; [8]): 9.04; CIavg (weighted average CI) (L5178YMDR cells; [8]): 0.70; CI at ED75 (L5178YMDR cells; [9]): 0.72; CI at ED90 (L5178YMDR cells; [9]): 0.60; Dm (antilog of the x-intercept of the median-effect plot) (L5178YMDR cells; [9]): 13.53; CIavg (weighted average CI) (L5178YMDR cells; [9]): 0.68; CI at ED75 (L5178YMDR cells; [10]): 0.86; CI at ED90 (L5178YMDR cells; [10]): 0.74; Dm (antilog of the x-intercept of the median-effect plot) (L5178YMDR cells; [10]): 20.47; CIavg (weighted average CI) (L5178YMDR cells; [10]): 0.82; CI at ED75 (L5178YMDR cells; [11]): 1.26; CI at ED90 (L5178YMDR cells; [11]): 1.24; Dm (antilog of the x-intercept of the median-effect plot) (L5178YMDR cells; [11]): 30.97; CIavg (weighted average CI) (L5178YMDR cells; [11]): 1.25
CC(=O)[C@H]1CC[C@@]2(F)C3=CC(=O)[C@@H]4C[C@H]5OC(C)(C)O[C@H]5C[C@]4(C)[C@H]3CC[C@]12C [Compound 11]	91.9 ± 9.3	81.9 ± 2.9	> 100	31.8 ± 2.1	55.7 ± 5.9	10 ± 2.1	-0.57	-0.51	CI at ED75 (L5178YMDR cells; [8]): 0.56; CI at ED90 (L5178YMDR cells; [8]): 0.41; Dm (antilog of the x-intercept of the median-effect plot) (L5178YMDR cells; [8]): 7.00; CIavg (weighted average CI) (L5178YMDR cells; [8]): 0.52; CI at ED75 (L5178YMDR cells; [9]): 0.55; CI at ED90 (L5178YMDR cells; [9]): 0.39; Dm (antilog of the x-intercept of the median-effect plot) (L5178YMDR cells; [9]): 11.66; CIavg (weighted average CI) (L5178YMDR cells; [9]): 0.51; CI at ED75 (L5178YMDR cells; [10]): 0.53; CI at ED90 (L5178YMDR cells; [10]): 0.38; Dm (antilog of the x-intercept of the median-effect plot) (L5178YMDR cells; [10]): 15.83; CIavg (weighted average CI) (L5178YMDR cells; [10]): 0.49; CI at ED75 (L5178YMDR cells; [11]): 0.66; CI at ED90 (L5178YMDR cells; [11]): 0.48; Dm (antilog of the x-intercept of the median-effect plot) (L5178YMDR cells; [11]): 24.06; CIavg (weighted average CI) (L5178YMDR cells; [11]): 0.61; CI at ED75 (L5178YMDR cells; [12]): 0.72; CI at ED90 (L5178YMDR cells; [12]): 0.55; Dm (antilog of the x-intercept of the median-effect plot) (L5178YMDR cells; [12]): 28.63; CIavg (weighted average CI) (L5178YMDR cells; [12]): 0.67
CC(=O)[C@H]1CC[C@@]2(O)C3=CC(=O)[C@@H]4C[C@H]5OC(C)(C)O[C@H]5C[C@]4(C)[C@H]3[C@H](O)C[C@]12C [Compound 3]	> 100	> 100	> 100	75.5 ± 4.1	> 100	21.4 ± 0.2	-0.03	-0.35	–
COc1cc2c(cc1OC)CN(CCc1ccc(NC(=O)c3cc(OC)c(OC)cc3NC(=O)c3cnc4ccccc4c3)cc1)CC2 [tariquidar, reference compound]	–	–	–	–	–	–	–	–	inhibition at 20 min, 0.02 µM (ABCB1; 20 nM, L5178YMDR, rhodamine 123 accumulation, read-out: ABCB1 inhibition, positive control): 87.5%
CC(=O)[C@H]1CC[C@@]2(O)C3=CC(=O)[C@@H]4C[C@H]5OC(C)(C)O[C@H]5C[C@]4(C)C3=CC[C@]12C [Compound 5]	> 100	> 100	> 100	56.5 ± 6	80.2 ± 2.1	20.9 ± 3.6	0.2	-0.41	–
COc1cccc2c1C(=O)c1c(O)c3c(c(O)c1C2=O)C[C@@](O)(C(=O)CO)C[C@@H]3O[C@H]1C[C@H](N)[C@H](O)[C@H](C)O1 [Doxorubicin, reference compound]	0.3 ± 0.1	8.1 ± 2.8	1.7 ± 0.5	0.014 ± 0.002	0.71 ± 0.2	–	–	–	–
CC(=O)[C@H]1CC[C@@]2(O)C3=CC(=O)[C@@H]4C[C@H]5OC(C)(C)O[C@H]5C[C@]4(C)[C@H]3CC[C@]12C [Compound 9, poststerone 2,3-acetonide]	> 100	> 100	> 100	49.2 ± 3.4	85.2 ± 5.1	> 100	-0.4	-0.42	–
CC(=O)O[C@H]1C[C@]2(C)C3=CC[C@@]4(C)C(=CC[C@@H]4[C@@]4(C)OC(C)(C)O[C@@H]4CCC(C)(C)O)C3=C(O)C(=O)[C@@]23C[C@@H]13 [Compound 17]	27.2 ± 1	35.9 ± 0.6	–	20.3 ± 1	14.3 ± 0.5	5.9 ± 1.2	1.08	45.5	inhibition at 20 min (ABCB1; concentration not given, read-out: direct ABCB1 inhibition): ~50%
